Laboratory results from patent US20140005164A1, “WNT PATHWAY ANTAGONISTS” (Siena Biotech S.p.A., priority 2011, published 2014).

What was measured:
[1] = test system: DBTRG cells; assay: Soft agar anchorage independent assay; type: cell-based; conditions: 504 h; DBTRG colonies scored 3 weeks after plating; range over the listed examples, given with mixed units nM and μM
Experimental: DBTRG cells were seeded into a 24-well format in the presence of […] carrier alone or compound (0.6% DMSO (v/v)). Each well is composed of two agar layers: the bottom layer consists of 0.6% Agar while the top has 0.35% Agar plus cells and compound. Cells (2500 per well) were incubated with […] dilution compound the day of the plating and the colonies were scored 3 weeks later after o/n staining with MTT solution. Imaging and counting of the colonies was done with the GelCount™ instrument (Oxford Optronix, UK). For IC50 determination the data were expressed as % of control, values were calculated using XLFit version 4.2, with a four parameters sigmoid 5 function (XLFit model 205).

[2] = test system: Wnt/β-catenin pathway; assay: Wnt reporter assay (TCF-Luciferase, Firefly) in DBTRG-05MG cells; type: cell-based; conditions: Homo sapiens, TCF-Luciferase (Firefly) read out, 24 hours after compound addition, range given with mixed units nM and μM, read-out: IC50 value in the reporter assay
Summary of the method: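 DBTRG-05MG cells carrying a 3×(4×TCF)-driven Firefly luciferase reporter, with Renilla also read, were plated 36 h before an 8-point compound dilution series (0.6% DMSO). Lysis and Dual-Luciferase readout followed 24 h after compound addition. Firefly and Renilla were each expressed as % of control and fitted to a four-parameter sigmoid.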

Row | SMILES | IC50 [1] [nM] | IC50 [2] [nM]
1 | COc1cc2c(cc1F)n(C)c(=O)n2C[C@H]1CC[C@H](C(=O)Nc2ccncc2)CC1 [Example 1, Trans-4-(5-Fluoro-6-Methoxy-3-methyl-2-oxo-2,3-dihydro-benzoimidazol-1-ylmethyl)-cyclohexanecarboxylic acid pyridine-4-ylamide] | 32 to 2900 | 35 to 23000
2 | C#Cc1ccc2c(c1)n(C[C@H]1CC[C@H](C(=O)N3CCN(C(C)=O)CC3)CC1)c(=O)n2C [Example 14, 3-[trans-4-(4-Acetyl-piperazine-1-carbonyl)-cyclohexylmethyl]-5-ethynyl-1-methyl-1,3-dihydro-benzoimidazol-2-one] | 32 to 2900 | 35 to 23000
3 | Cn1c(=O)n(C[C@H]2CC[C@H](C(=O)Nc3ccncc3)CC2)c2cc(C(F)(F)F)ccc21 [Example 22] | 32 to 2900 | 35 to 23000
4 | COc1ccc2c(c1)n(C[C@H]1CC[C@H](C(=O)Nc3ccncc3)CC1)c(=O)n2C [Example 29] | 32 to 2900 | 35 to 23000
5 | COc1ccc2c(c1)n(C[C@H]1CC[C@H](C(=O)N3C[C@@H](C)O[C@@H](C)C3)CC1)c(=O)n2C [Example 61] | 32 to 2900 | 35 to 23000
6 | CC(=O)N1CCN(C(=O)[C@H]2CC[C@H](Cn3c(=O)n(C)c4ccc(C5CC5)cc43)CC2)CC1 [Example 68] | 32 to 2900 | 35 to 23000
7 | COCCOc1ccc2c(c1)n(C[C@H]1CC[C@H](C(=O)N3CCN(C(C)=O)CC3)CC1)c(=O)n2C [Example 71] | 32 to 2900 | 35 to 23000
8 | COCCOc1ccc2c(c1)n(C[C@H]1CC[C@H](C(=O)Nc3ccncc3)CC1)c(=O)n2C [Example 72] | 32 to 2900 | 35 to 23000
9 | COc1ccc2c(c1)n(C[C@H]1CC[C@H](c3nnc(-c4cnn(C)c4)o3)CC1)c(=O)n2C [Example 106] | 32 to 2900 | 35 to 23000
10 | COCC#Cc1ccc2c(n1)n(C[C@H]1CC[C@H](C(=O)Nc3ccncc3)CC1)c(=O)n2C [Example 115] | 32 to 2900 | 35 to 23000
11 | COCCOc1ccc2c(c1)n(C[C@H]1CC[C@H](C(=O)Nc3ccnnc3)CC1)c(=O)n2C [Example 121] | 32 to 2900 | 35 to 23000
12 | COCCOc1ccc2c(c1)n(C[C@H]1CC[C@H](c3nnc(-c4cnn(C)c4)o3)CC1)c(=O)n2C [Example 147] | 32 to 2900 | 35 to 23000
13 | Cn1c(=O)n(C[C@H]2CC[C@H](C(=O)Nc3ccncc3)CC2)c2cc(OCCN3CCOCC3)ccc21 [Example 152] | 32 to 2900 | 35 to 23000
14 | COc1ccc2c(c1)n(C[C@H]1CC[C@H](c3cc(-c4cnn(C)c4)n[nH]3)CC1)c(=O)n2C [Example 153] | 32 to 2900 | 35 to 23000
15 | COc1cc2c(cc1F)n(C)c(=O)n2C[C@H]1CC[C@H](C(=O)N2CCN(C(C)=O)CC2)CC1 [Example 161] | 32 to 2900 | 35 to 23000
16 | COCCOc1ccc2c(n1)n(C[C@H]1CC[C@H](c3nnc(-c4cccnc4)o3)CC1)c(=O)n2C [Example 181] |  | 35 to 23000
17 | COc1cc2c(cc1F)n(C)c(=O)n2C[C@H]1CC[C@H](c2nnc(-c3cnn(C)c3)o2)CC1 [Example 182] | 32 to 2900 | 35 to 23000
18 | COc1cc2c(cc1F)n(C)c(=O)n2C[C@H]1CC[C@H](C(=O)N2CCN(c3cnn(C)c3)CC2)CC1 [Example 183] |  | 35 to 23000
19 | COCCOc1cc2c(cc1F)n(C)c(=O)n2C[C@H]1CC[C@H](c2nnc(-c3cnn(C)c3)o2)CC1 [Example 185] | 32 to 2900 | 35 to 23000
20 | COCCOc1cc2c(cc1F)n(C)c(=O)n2C[C@H]1CC[C@H](C(=O)Nc2ccncc2)CC1 [Example 186] | 32 to 2900 | 35 to 23000
21 | COc1ccc2c(c1)n(C[C@H]1CC[C@H](C(=O)Nc3nc4ccccc4s3)CC1)c(=O)n2C [Example 187] |  | 35 to 23000
22 | COc1ccc2c(c1)n(C[C@H]1CC[C@H](C(=O)Nc3cccc4ncccc34)CC1)c(=O)n2C [Example 188] |  | 35 to 23000
